Source: patent US20130136740A1, “METHODS OF TREATING CANCER” (priority 2011, published 2013)

Assay: Serum phosphate in rats
Assay type: in vivo, Sprague Dawley rats
Settings: daily dosing 50 mg/kg/day oral gavage, at 24 hour or 1 week
Procedure: FGFR1-ECD.339-Fc binds to the mitogenic FGFs with 10 to 100-fold higher affinity than to FGF-23. […] The potential biological impact of this relatively weak FGFR1-ECD.339-Fc/FGF-23 binding was investigated in rats following four weekly doses of FGFR1-ECD.339-Fc at a dose range of 10-200 mg/kg/qwk.
In the first experiment, Sprague Dawley rats (Charles River Labs; N=5/group) were dosed with vehicle, 10, 50 or 200 mg/kg/qwk of FGFR1-ECD.339-Fc for four weekly doses and plasma concentrations of FGFR1-ECD.339-Fc were determined throughout the study by an ELISA based detection method.
In the second experiment, Sprague Dawley rats (Charles River Labs; N=5/group) were administered the FGFR kinase inhibitor PD173074 (Chemdea, Ridgewood, N.J.; 50 mg/kg/day) or vehicle control by oral gavage for 7 days; or were administered FGFR1-ECD.339-Fc (200 mg/kg) or appropriate vehicle weekly by intravenous administration. Blood samples were collected at the time points indicated and serum phosphate was determined at 24 and 168 hours post-initiation of dosing (Idexx laboratories, Westbrook, Mass.).

Question: Which plasma phosphate levels does the source give for `CCN(CC)CCCCNc1ncc2cc(-c3cc(OC)cc(OC)c3)c(NC(=O)NC(C)(C)C)nc2n1` [PD173043, reference compound] here?
Answer: significantly elevated
